{
  "source": "patent US20200046720A1",
  "about": "“ENGINEERED BIOCOMPATIBLE ANTIBIOTIC PARTICLES AND THEIR USE AGAINST URINARY TRACT INFECTION” (The University of North Carolina at Chapel Hill, priority 2016, published 2020)",
  "key": {"E. coli UT189 [1]": {"tested_on": "E. coli UT189", "assay": "Tissue culture-based microbial inhibition assay, intracellular E. coli infection of bladder epithelial cells", "assay_type": "cell-based, Escherichia coli", "conditions": "cultured bladder epithelial cells", "experimental": "FIGS. 3A-D show PRINT-Levofloxacin provides prolonged protection against intracellular E. coli infection. UROTSA bladder epithelial cell monolayers were incubated with media, free levofloxacin (FREE LEVO), blank PRINT particles (BLANK PRINT), or a formulation of PRINT encapsulated levofloxacin (PRINT-LEVO) for 1 hour. Each treatment was removed, the cells were washed, and the cells were immediately infected with E. coli UT189 (FIG. 3A), 8 hours later (FIG. 3B), or 18 hours later (FIG. 3C). After 1 hour of infection with E. coli, the medium was replaced with medium containing gentamicin to eliminate extracellular bacteria. Viable bacteria in the bladder epithelial cells were enumerated 24 hours later. The formulations and associated sizes and charges are shown for reference (FIG. 3D). Tissue culture-based microbial inhibition assays-Bladder epithelial cell lines 5637 and UROTSA have been previously described. Tissue culture cells were growth in RPMI 1640 media to 80% confluence and lifted using trypsin-EDTA (Sigma-Aldrich). Twenty four well plates (Genesee Scientific) were seeded with 5637 cells and grown for 2 days at 37° C., 5% CO2 prior to infections. Where appropriate to the assay conditions, unencapsulated (“free”) levofloxacin was added to the wells one hour prior to infection and at the same concentration as wells treated with PRINT-levofloxacin particles. […]"}, "E. coli UT189 [2]": {"tested_on": "E. coli UT189", "assay": "Rat spinal cord injury UTI infection model", "assay_type": "in vivo, Escherichia coli", "conditions": "female SCI rats, single intracystic dose, drained after 1 hour, infected 8 hours later, bladder and kidney", "experimental": "FIGS. 6A-C show PRINT-LEVO provides sustained protection against E. coli UTI in the SCI rat. Female SCI rats were treated by transurethral catheterization and instillation of a volume equivalent to their previously determined residual urine volume containing PBS, PBS with free levofloxacin (5 μg/ml), PRINT-LEVO (formula D5), or BLANK PRINT particles (wt/vol equivalent to PRINT-LEVO). After 1 hour of treatment, all animals had their bladder creded to remove each treatment. The animals were infected with E. coli at increasing time intervals following the administration and drainage of the test or control agents from the bladder: 4 hours (FIG. 6A), 8 hours (FIG. 6B), or 18 hours (FIG. 6C). Bacteria were counted in the bladders and kidneys 24 hours after infection with E. coli by tissue homogenization and plating of dilutions on solid agar medium. Horizontal bars indicate the geometric means.\nAs described previously, female Sprague-Dawley rats (Harlan; 175-200 gm) underwent controlled surgical T10 spinal cord transection to model spinal cord injury and produce a neurogenic bladder phenotype. […] Due to the spinal cord injury and subsequent neurogenic bladder phenotypes, animals were routinely monitored and creded to relieve urinary retention each 12 hours. […]"}},
  "data": [
    {"molecule": "C[C@H]1COc2c(N3CCN(C)CC3)c(F)cc3c(=O)c(C(=O)O)cn1c23", "note": "[free levofloxacin, levofloxacin]", "values": [
      {"measurement": "time to loss of significant effectiveness after a single dose", "setting": "E. coli UT189 [1]", "result": "≤ 1", "unit": "h"},
      {"measurement": "protection against E. coli infection (animals infection-free), 8 hour delay", "setting": "E. coli UT189 [2]", "result": 12.5, "unit": "%"}
    ]}
  ]
}
